Reference: ChEMBL document CHEMBL5038644 (J Med Chem, 2022)
Active and inactive are the calls of the source. The calls are words filed in the database; no cut-off is given here. Bridge positions count the residues as written; N and C are the ends. Square brackets hold non-standard residues; d marks the D form. Peptide text beside a SMILES is read from it. AllylGly = C=CC[C@H](N)C(=O)O; Nle = CCCC[C@H](N)C(=O)O; Ava = NCCCCC(=O)O

How the values were obtained:
Apelin receptor = target: T1, Apelin receptor (Homo sapiens, UniProt P35414); assay: Displacement of [125I]-[Nle75,Tyr77][Pyr1]-Ape13 from YFP-tagged human APJ expressed in HEK293 cell membranes assessed as inhibition constant incubated for 1 hr by scintillation counting method
T1 sequence (P35414 whole entry): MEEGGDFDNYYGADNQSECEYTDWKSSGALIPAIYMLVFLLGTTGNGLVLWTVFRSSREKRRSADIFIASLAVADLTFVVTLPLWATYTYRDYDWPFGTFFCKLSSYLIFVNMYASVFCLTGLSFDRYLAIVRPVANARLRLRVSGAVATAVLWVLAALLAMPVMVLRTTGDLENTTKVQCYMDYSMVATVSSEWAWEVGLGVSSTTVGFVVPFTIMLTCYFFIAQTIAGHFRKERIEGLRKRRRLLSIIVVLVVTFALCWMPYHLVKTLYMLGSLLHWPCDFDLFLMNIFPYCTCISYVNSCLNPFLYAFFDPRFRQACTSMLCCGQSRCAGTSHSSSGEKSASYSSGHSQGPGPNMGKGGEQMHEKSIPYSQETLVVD

[1] = target: T2, Apelin receptor (Homo sapiens) (UniProt P35414); assay: Agonist activity at human APJ expressed in HEK293 cells assessed as maximal efficacy for dissociation of G alphai1 from the G beta gamma subunit by BRET-based G protein dissociation assay relative to control; format: functional, cell-based; conditions: filed as agonist
T2 sequence (whole entry): T1 sequence (P35414 whole entry)

[2] = target: T2, Apelin receptor (Homo sapiens); assay: Agonist activity at human APJ expressed in HEK293 cell membrane assessed as maximal efficacy for recruitment of PDZ-RhoGEF Galphai1 to cell membrane by BRET-based G protein dissociation assay relative to control; format: functional; conditions: filed as agonist
[3] = target: T2, Apelin receptor (Homo sapiens); assay: Agonist activity at human APJ expressed in HEK293 cell membrane assessed as maximal efficacy for recruitment of beta-arrestin2 to receptor by BRET-based beta-arrestin2 assay relative to control; format: functional; conditions: filed as agonist
Rattus norvegicus [4] = assay: Cardioprotective activity in Sprague-Dawley rat assessed as effect on left ventricular fractional shortening at 2 micromol/kg, sc after 6 hrs by echocardiography relative to control; format: functional; conditions: dose 2 µmol/kg
Rattus norvegicus [5] = assay: Cardioprotective activity in Sprague-Dawley rat assessed as effect on left ventricular fractional shortening at 2 micromol/kg, sc after 3 hrs by echocardiography relative to control; format: functional; conditions: dose 2 µmol/kg
Rattus norvegicus [6] = assay: Cardioprotective activity in Sprague-Dawley rat assessed as effect on cardiac output in sprague-dawley rat at 0.2 micromol/kg, sc after 3 hrs by echocardiography; format: functional, organism-based; conditions: dose 0.2 µmol/kg
Rattus norvegicus [7] = assay: Cardioprotective activity in Sprague-Dawley rat assessed as effect on left ventricular fractional shortening at 0.2 micromol/kg, sc after 3 hrs by echocardiography; format: functional, organism-based; conditions: dose 0.2 µmol/kg
Rattus norvegicus [8] = assay: Cardioprotective activity in Sprague-Dawley rat assessed as effect on cardiac output in sprague-dawley rat at 2 micromol/kg, sc after 6 hrs by echocardiography relative to control; format: functional; conditions: dose 2 µmol/kg
Rattus norvegicus [9] = assay: Cardioprotective activity in Sprague-Dawley rat assessed as effect on cardiac output in sprague-dawley rat at 2 micromol/kg, sc after 3 hrs by echocardiography relative to control; format: functional; conditions: dose 2 µmol/kg
Rattus norvegicus [10] = assay: Hypotensive effect in Sprague-Dawley rat assessed as decrease in blood pressure at 19.6 to 65 nmol/kg, iv relative to control; format: functional; conditions: dose 19.6-65 nmol/kg
[11] = Stability in Sprague-Dawley rat plasma assessed as half life measured upto 24 hrs by UPLC-MS analysis; format: ADME, cell-free
[12] = Stability in Sprague-Dawley rat plasma at 3 mg/kg, iv upto 2 hrs by LC/MS-MS analysis; format: ADME, organism-based; conditions: in vivo
[13] = AUC in Sprague-Dawley rat plasma at 3 mg/kg, iv by LC/MS-MS analysis; format: ADME, organism-based; set-up: dose 3 mg/kg; conditions: in vivo

Row | Compound | Ki (Apelin receptor) [µM] | Emax [1] [%] | Emax [2] [%] | Emax [3] [%] | other results
1 | CCCC[C@H](NC(=O)[C@@H]1CCCN1C(=O)CCCCNC(=O)[C@@H]1C/C=C\C[C@H](N)C(=O)N[C@@H](CCCNC(=N)N)C(=O)N[C@@H](CC(C)C)C(=O)N[C@@H](CO)C(=O)N1)C(=O)O (H-[AllylGly]RLS[AllylGly][Ava]P[Nle]-OH; staple (Z) 1-5) | > 10 |  |  |  | 
2 | CC(C)C[C@@H]1NC(=O)[C@H](CCCNC(=N)N)NC(=O)[C@@H](N)C/C=C\C[C@@H](C(=O)N[C@@H](CCCCN)C(=O)NCC(=O)N2CCC[C@H]2C(=O)N[C@H](Cc2ccc(OCc3ccccc3)cc2)C(=O)O)NC(=O)[C@H](CO)NC1=O |  | 104 | 48 | 78 | 
3 | CC(C)C[C@@H]1NC(=O)[C@H](CCCNC(=N)N)NC(=O)[C@@H](N)C/C=C\C[C@@H](C(=O)N[C@@H](CCCCN)C(=O)O)NC(=O)[C@H](CO)NC1=O (H-[AllylGly]RLS[AllylGly]K-OH; staple (Z) 1-5) | > 10 |  |  |  | 
4 | CC(C)C[C@@H]1NC(=O)[C@H](CCCNC(=N)N)NC(=O)[C@@H](N)C/C=C\C[C@@H](C(=O)N[C@@H](CCCCN)C(=O)NCC(=O)N2CCC[C@H]2C(=O)N[C@H](Cc2ccc(O)cc2)C(=O)O)NC(=O)[C@H](CO)NC1=O |  | 100 | 45 | 54 | 
5 | CCCC[C@H](NC(=O)[C@@H]1CCCN1C(=O)CNC(=O)[C@@H]1C/C=C\C[C@H](N)C(=O)N[C@@H](CCCNC(=N)N)C(=O)N[C@@H](CC(C)C)C(=O)N[C@@H](CO)C(=O)N1)C(=O)O (H-[AllylGly]RLS[AllylGly]GP[Nle]-OH; staple (Z) 1-5) | > 10 |  |  |  | 
6 | CC(C)C[C@@H]1NC(=O)[C@H](CCCNC(=N)N)NC(=O)[C@@H](N)C/C=C\C[C@@H](C(=O)N[C@@H](CCCCN)C(=O)NCC(=O)N2CCC[C@H]2C(=O)N[C@H](Cc2ccc3ccccc3c2)C(=O)O)NC(=O)[C@H](CO)NC1=O |  | 105 | 40 | 55 | Activity (Rattus norvegicus [4]): 17%; Activity (Rattus norvegicus [5]): 22%; Activity (Rattus norvegicus [6]): Active; Activity (Rattus norvegicus [7]): Active; Activity (Rattus norvegicus [8]): 16%; Activity (Rattus norvegicus [9]): 22%; Activity (Rattus norvegicus [10]): inactive; half-life [11]: > 24 h; Stability [12]: Stable; AUC [13]: 8.8 mg·min/mL
7 | CCCC[C@H](NC(=O)[C@@H]1CCCN1C(=O)CNC(=O)[C@H](CCCCN)NC(=O)[C@@H]1C/C=C\C[C@H](N)C(=O)N[C@@H](CCCNC(=N)N)C(=O)N[C@@H](CC(C)C)C(=O)N[C@@H](CO)C(=O)N1)C(=O)N1CCC[C@H]1C(=O)N[C@@H](Cc1ccccc1)C(=O)O |  | 100 | 98 | 98 | Activity (Rattus norvegicus [10]): -27 mmHg

Second part, led by results:

Row | Ki (Apelin receptor) [µM] | Emax [1] [%] | Emax [2] [%] | Emax [3] [%] | Compound | other results
8 |  | 102 | 97 | 90 | CCCC[C@H](NC(=O)[C@@H]1CCCN1C(=O)CNC(=O)[C@H](CCCCN)NC(=O)[C@@H]1CCN(C)C/C=C/C[C@H](NC(=O)[C@H](CCCNC(=N)N)NC(=O)[C@@H]2CCC(=O)N2)C(=O)N[C@@H](CCCNC(=N)N)C(=O)N[C@@H](CC(C)C)C(=O)N[C@@H](CO)C(=O)N1)C(=O)N1CCC[C@H]1C(=O)N[C@@H](Cc1ccccc1)C(=O)O | 
9 |  | 103 | 105 | 92 | CCCC[C@H](NC(=O)[C@@H]1CCCN1C(=O)CNC(=O)[C@H](CCCCN)NC(=O)[C@@H]1C/C=C\C[C@H](NC(=N)N)C(=O)N[C@@H](CCCNC(=N)N)C(=O)N[C@@H](CC(C)C)C(=O)N[C@@H](CO)C(=O)N1)C(=O)N1CCC[C@H]1C(=O)N[C@@H](Cc1ccccc1)C(=O)O | 
10 |  | 100 | 95 | 86 | CCCC[C@H](NC(=O)[C@@H]1CCCN1C(=O)CNC(=O)[C@H](CCCCN)NC(=O)[C@@H]1CCNC/C=C/C[C@H](NC(=O)[C@H](CCCNC(=N)N)NC(=O)[C@@H]2CCC(=O)N2)C(=O)N[C@@H](CCCNC(=N)N)C(=O)N[C@@H](CC(C)C)C(=O)N[C@@H](CO)C(=O)N1)C(=O)N1CCC[C@H]1C(=O)N[C@@H](Cc1ccccc1)C(=O)O | 
